Experimental data reported in US20220000887A1, “REPURPOSED ANTIBIOTICS FOR NON-NUCLEAR GENOTOXIC CHEMOTHERAPY AND PHARMACEUTICAL COMPOSITION FOR ANTI-CANCER CONTAINING THE SAME” (Korea University Research and Business Foundation, priority 2019, published 2022).
“And” between values parts separate entries of the source, which are not always exact repeats. Equal entries are not always repeated. “Also recorded” adds a separate entry of the source. Where two headings read alike, the source gives them in different places. Values belong to the compound of their own block, whether it stands above or below them.

Assays:
[1] = system: SW620 (colon cancer cells); assay: Cell viability analysis (LDH assay), SW620; assay type: cell-based, human; conditions: FIG. 3
Description: (§1) Particularly, the inventive anticancer drugs had IC50 values of 23.77 μM and 27.05 μM against A549 and SW620, respectively.

[2] = system: MDA-MB-231 metastatic breast cancer cells; assay: Cell viability analysis (LDH assay), MDA-MB-231; conditions: for apoptotic effect on MDA-MB-231 cells: 48 h treatment
[3] = system: PC3 (prostate cancer cells); assay: Cell viability analysis (LDH assay), PC3; assay type: cell-based, human; conditions: FIG. 3
Description: as §1

[4] = system: DU145 (prostate cancer cells); assay: Cell viability analysis (LDH assay), DU145; assay type: cell-based, human; conditions: FIG. 3
Description: as §1

[5] = system: A549 (lung cancer cells); assay: Cell viability analysis (LDH assay), A549; assay type: cell-based, human; conditions: FIG. 3
Description: as §1

[6] = system: MDA-MB-231 cells; assay: Mitochondrial membrane potential measurement (JC-1 assay); assay type: cell-based, human; conditions: 10 μM, 0, 6, 12, 24 h, FIG. 7
Description: Mitochondrial membrane potential differences were measured. To this end, the MDA-MB-231 cells were treated with 10 μM Ester MT-CFX for different periods of time (0, 6, 12, and 24 h) and cultured for indicated periods of time. Cells were harvested, washed once with ice-cold PBS, and cultured with […] 5,5′,6,6′-tetrachloro-1,1′,3,3′-tetraethyl-benzimidazolyl carbocyanine chloride (JC-1) at 37° C. for 20 min. The JC-1 stained cells were centrifuged at 1,300 g for 3 min and washed twice with ice-cold PBS. Mitochondrial membrane potentials of JC-1 monomer (green channel) and aggregate (red channel) were measured in different wavelength bands.

[7] = system: nuclear DNA and mitochondrial DNA
Description: (§2) RNA was extracted from each sample using TRIzol solution. cDNA synthesized from the isolated RNA or intracellular genomic DNA extracted using a genomic DNA isolation kit was used for real-time polymerase chain reaction (PCR).
(§3) The real-time PCR data were normalized by the expression of glyceraldehyde-3-phosphate dehydrogenase (GAPDH). Relative expression levels were expressed as fold changes over the control. The results (mean±SE) were obtained in triplicate and a p value <0.05 was taken to be statistically significant.

[8] = system: nuclear DNA and mitochondrial DNA; assay: Damage to nuclear DNA and mitochondrial DNA (FIG. 8)
Description: as §2, §3

[9] = system: mitochondrial genomic DNA; assay: Taq1 assay for damage to mitochondrial genomic DNA (FIG. 10); assay type: cell-based
[10] = system: mitochondrial DNA synthesis; assay: Mitochondrial DNA synthesis (FIG. 5); assay type: cell-based
Description: as §2, §3

[11] = system: MDA-MB-231 xenograft; assay: In vivo mouse xenograft model; conditions: intravenous three times a week, 12 weeks, BALB/c-nu-nu mice
Description: Five-week-old immunodeficient male BALB/c-nu-nu mice (Orient bio, Korea) weighing between 18-20 g were used. The animals were bred and housed in a facility maintaining a humidity of 30-40% and a temperature of 22±1° C. on a 12-h light/dark cycle. All animal experiments were approved by the Ethics Committee for Animal Studies at Korea University. Animals were treated in accordance with the protocol approved by the Ethics Committee.
MDA-MB-231 cells (5×10^6 cells) were injected subcutaneously into 6-week-old immunodeficient BALB/c-nu-nu mice weighing between 18-20 g to establish tumor-bearing mouse models. […] The lengths of the long and short axes of tumors were measured weekly. 12 weeks after the first injection of each compound, the mice were sacrificed and tumor samples were collected for further analysis. […] Each asterisk (*) indicates a significant difference to the corresponding control.

[12] = system: nuclear and mitochondrial DNA; assay: Real-time PCR for nuclear and mitochondrial DNA damage lesions (FIG. 11); assay type: cell-based
Description: as §2, §3

[13] = system: MDA-MB-231 cells; assay: Reactive oxidative species (ROS) measurement (Amplex Red, CM-H2DCFDA); assay type: cell-based, human; conditions: 10 μM, 48 h, FIG. 4
Description: The activity of hydrogen peroxide (H2O2) produced in cells was evaluated by detection with Amplex® Red reagent (10-acetyl-3,7-dihydroxyphenoxazine; Thermo Fisher scientific). Here, Amplex® Red reagent reacts with H2O2 in a stoichiometric ratio of 1:1 in the presence of peroxidase in cells to produce resorufin as a red fluorescent product. The fluorescence of resorufin can be analyzed at excitation and emission wavelengths of 571 nm and 581 nm, respectively. The MDA-MB-231 cell line was seeded into a 96-well plate and treated with 10 μM Ester MT-CFX for 48 h. Thereafter, the amount of hydrogen peroxide was measured. A reaction mixture of 50 μM Amplex® Red reagent and 0.1 U/mL HRP was prepared in Krebs-Ringer phosphate buffer (145 mM NaCl, 5.7 mM sodium phosphate, 4.86 mM KCl, 0.54 mM CaCl2, 1.22 mM MgSO4, 5.5 mM glucose, pH 7.35). 100 μL of the reaction mixture was added to each plate well, followed by incubation at 37° C. for 10 min. The brightness of fluorescence was measured at 530-560 nm excitation and 590 nm emission wavelengths using a microplate reader. The MDA-MB-231 cell line was seeded into a confocal dish. […] The fluorescence of reactive oxygen species produced in cells was imaged by confocal laser scanning microscopy at 492-495 nm excitation and 517-527 nm emission wavelengths.

[14] = system: MDA-MB-231 cells; assay: FACS measurement of Annexin-V positive apoptotic cells; assay type: cell-based, human; conditions: 10 μM, 0, 6, 12, 24 h, Annexin V assay, FIG. 7
Description: Annexin-V positive apoptotic cells were analyzed by flow cytometry. To this end, the MDA-MB-231 cells were treated with 10 μM Ester MT-CFX for different periods of time (0, 6, 12, and 24 h) and cultured for indicated periods of time. Cells were harvested, washed twice with ice-cold PBS, placed in BD FACS tubes (10^6/mL), and cultured with 10 μg/mL annexin V in PBS containing 10% FBS at room temperature for 30 min. Subsequently, cells were washed with ice-cold PBS and annexin V fluorescence was measured in the FL-1 channel using a FACSCalibur flow cytometer (BD, USA).

Structure (SMILES): O=C(NCCCCCC[P+](c1ccccc1)(c1ccccc1)c1ccccc1)c1cn(C2CC2)c2cc(N3CCNCC3)c(F)cc2c1=O.[Cl-] [Amide Mt-CFX]
apoptotic effects on SW620 [1]: apoptotic effects | apoptotic effect on MDA-MB-231 cells ([2]; LDH assay): enhanced apoptotic effect; also recorded: apoptotic effects | apoptotic effects on PC3 [3]: apoptotic effects | apoptotic effects on DU145 [4]: apoptotic effects | apoptotic effects on A549 [5]: apoptotic effects

IC50 ([2]; MDA-MB-231, 48 h treatment, LDH assay): ~15 µM and 20 to 30 µM
Structure (SMILES): Cl.O=C(OCCCCCC[P+](c1ccccc1)(c1ccccc1)c1ccccc1)c1cn(C2CC2)c2cc(N3CCNCC3)c(F)cc2c1=O.[Cl-] [Ester Mt-CFX]
mitochondrial membrane potential differences [6]: reduction of mitochondrial membrane potential differences | toxicity to nuclear genes [7]: no toxicity to nuclear genes | toxicity to mitochondrial genes [8]: selective toxicity to mitochondrial genes | mitochondria targeting (damage to mitochondrial genomic DNA) [9]: targeted mitochondria | apoptotic effects on SW620 [1]: apoptotic effects | mitochondrial DNA synthesis [10]: inhibition of mitochondrial DNA synthesis | cancer volume compared to control [11]: significant reduction in cancer volume | apoptotic effect on MDA-MB-231 cells ([2]; LDH assay): strong apoptotic effect; also recorded: apoptotic effects | apoptotic activity against the cancer cells, fold higher than that of ciprofloxacin ([2]; MDA-MB-231, ratio of IC50 values): ~55,000 fold | apoptotic effects on PC3 [3]: apoptotic effects | apoptotic effects on DU145 [4]: apoptotic effects | mitochondrial mutations (DNA damage lesions) [12]: induced mitochondrial mutations | production of reactive oxygen species [13]: reactive oxygen species are produced | apoptosis over time [14]: occurrence of apoptosis over time | apoptotic effects on A549 [5]: apoptotic effects

Structure (SMILES): O=C(O)c1cn(C2CC2)c2cc(N3CCNCC3)c(F)cc2c1=O [ciprofloxacin, reference compound]
apoptotic effect on MDA-MB-231 cells ([2]; LDH assay): little or no apoptotic effect

Structure (SMILES): COc1cccc2c1C(=O)c1c(O)c3c(c(O)c1C2=O)C[C@@](O)(C(=O)CO)C[C@@H]3O[C@H]1C[C@H](N)[C@H](O)[C@H](C)O1 [doxorubicin, reference compound]
toxicity to nuclear genes [8]: strong toxicity to nuclear genes
